For orientation: IC50 means the point on the concentration scale where inhibition reaches its midpoint.

Here are results for 20 compounds from patent US20260207602A1, “EGFR INHIBITORS” (Blueprint Medicines Corporation, priority 2022, published 2026).

In one test the target is T1, EGFR L858R (Homo sapiens, UniProt P00533, L858R).
T1 construct: purchased SignalChem E10-122BG
In words: Biochemical EGFR inhibition assay (Caliper mobility shift), EGFR L858R. The settings on record: biochemical Caliper mobility shift assay, EGFR L858R enzyme; read-out: Enz EGFR L858R IC50. How it is done: (§1) Inhibitory effects of the compounds of the disclosure were measured in biochemical assays that measure the phosphorylation activity of EGFR enzyme phosphorylates 2.5 micromolar 5-FAM-[…]-CONH2 peptide substrate (ProfilerPro Kinase Peptide Substrate 22, PerkinElmer, Part #760366) in the presence of adenosine-5′-triphosphate (ATP) and varying concentrations of the test compound in 100 mM 2-[4-(2-hydroxyethyl)piperazin-1-yl]ethanesulfonic acid (HEPES), pH 7.5, 10 mM MgCl2, 0.015% Brij-35, 1 mM dithiothreitol (DTT), 1.0% dimehylsulfoxide (DMSO). Assays were performed at 1.0 mM ATP or at ATP Km of the EGFR enzymes. Reactions proceeded until between 10% to 20% total peptides were phosphorylated at room temperature (25° C.) and were terminated with 35 mM 2,2′,2″,2′″-(ethane-1,2-diyldinitrilo)tetraacetic acid (EDTA). Product was detected using the Caliper mobility shift detection method where the phosphorylated peptide (product) and substrate were electrophoretically separated and measured. Percent activity was plotted against log concentration of compound and points to generate an apparent IC50. The following enzyme forms of • EGFR were examples that were used in these assays: • EGFR WT (SignalChem, E10-112G) • EGFR L858R (SignalChem, E10-122BG) • EGFR (d746-750) (SignalChem, E10-122JG) • EGFR L858R C797S (SignalChem, E10-122ZG) • EGFR (d746-750) C797S (SignalChem, E10-122TG)

In another test the target is T2, EGFR (d746-750) (Homo sapiens, UniProt P00533, DEL746-750).
T2 construct: purchased SignalChem E10-122JG
T2 sequence (P00533 with tags, fused parts or gaps DEL746-750 limits assumed): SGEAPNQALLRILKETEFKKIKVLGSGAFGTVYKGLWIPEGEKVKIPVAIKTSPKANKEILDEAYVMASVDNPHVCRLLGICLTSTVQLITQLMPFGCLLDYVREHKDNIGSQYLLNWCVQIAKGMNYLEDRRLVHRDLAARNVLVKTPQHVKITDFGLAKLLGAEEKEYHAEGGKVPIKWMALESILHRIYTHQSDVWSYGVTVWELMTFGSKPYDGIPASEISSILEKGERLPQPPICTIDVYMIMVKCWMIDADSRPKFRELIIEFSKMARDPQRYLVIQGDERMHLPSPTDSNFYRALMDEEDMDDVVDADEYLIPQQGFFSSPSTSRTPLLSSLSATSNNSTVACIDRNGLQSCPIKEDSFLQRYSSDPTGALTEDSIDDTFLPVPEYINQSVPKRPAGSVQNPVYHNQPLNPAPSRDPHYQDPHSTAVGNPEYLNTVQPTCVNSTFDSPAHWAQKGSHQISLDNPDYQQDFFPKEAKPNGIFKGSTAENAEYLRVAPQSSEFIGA
As to the kind of experiment: Biochemical EGFR inhibition assay (Caliper mobility shift), EGFR (d746-750). The settings on record: biochemical Caliper mobility shift assay, EGFR Exon 19-del enzyme; read-out: Enz EGFR Exon 19-del IC50. How it is done: as §1

The target of test [1] is intracellular phosphorylation of EGFR (Tyr1068) in PC-9 cells (Homo sapiens, UniProt P00533, DEL746-750). In words: PC-9 pEGFR AlphaLISA assay. The class given is cell-based. The note with it: 4 hours incubation, read-out: Phos EGFR PC9 IC50. As to the method: PC-9/A431 pEGFR AlphaLISA Assays
Sequence of intracellular phosphorylation of EGFR (Tyr1068) in PC-9 cells (P00533 with tags, fused parts or gaps DEL746-750): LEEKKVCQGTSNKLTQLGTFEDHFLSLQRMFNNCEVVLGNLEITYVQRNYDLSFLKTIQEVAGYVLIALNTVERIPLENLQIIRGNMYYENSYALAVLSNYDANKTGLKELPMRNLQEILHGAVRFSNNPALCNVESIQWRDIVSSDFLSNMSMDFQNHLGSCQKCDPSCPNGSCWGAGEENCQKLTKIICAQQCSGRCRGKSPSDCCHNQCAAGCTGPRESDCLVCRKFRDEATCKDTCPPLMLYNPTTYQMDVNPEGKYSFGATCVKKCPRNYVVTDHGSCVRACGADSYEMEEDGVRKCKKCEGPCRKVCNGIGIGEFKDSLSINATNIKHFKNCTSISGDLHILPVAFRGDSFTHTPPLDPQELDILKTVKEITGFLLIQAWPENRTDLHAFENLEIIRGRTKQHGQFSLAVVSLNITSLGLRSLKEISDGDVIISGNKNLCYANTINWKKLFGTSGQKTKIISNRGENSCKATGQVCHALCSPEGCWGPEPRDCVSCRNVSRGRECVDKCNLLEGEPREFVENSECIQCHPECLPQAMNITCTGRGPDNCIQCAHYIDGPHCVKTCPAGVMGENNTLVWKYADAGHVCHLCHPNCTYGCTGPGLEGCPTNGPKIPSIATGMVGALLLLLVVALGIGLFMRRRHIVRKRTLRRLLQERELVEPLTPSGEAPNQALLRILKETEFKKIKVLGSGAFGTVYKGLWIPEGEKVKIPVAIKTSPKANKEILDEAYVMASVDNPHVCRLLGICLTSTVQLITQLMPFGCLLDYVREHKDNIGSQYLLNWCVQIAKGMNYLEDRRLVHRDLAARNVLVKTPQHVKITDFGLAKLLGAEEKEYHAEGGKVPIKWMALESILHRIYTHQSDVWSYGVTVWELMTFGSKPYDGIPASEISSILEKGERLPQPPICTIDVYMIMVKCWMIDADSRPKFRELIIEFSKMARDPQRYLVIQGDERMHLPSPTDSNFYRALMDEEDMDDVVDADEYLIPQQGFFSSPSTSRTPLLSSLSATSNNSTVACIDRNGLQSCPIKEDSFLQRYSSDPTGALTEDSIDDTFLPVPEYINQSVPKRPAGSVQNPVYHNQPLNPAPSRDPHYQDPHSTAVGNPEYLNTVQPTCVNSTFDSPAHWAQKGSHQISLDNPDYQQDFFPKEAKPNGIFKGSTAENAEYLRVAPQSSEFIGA
Inhibitory effects of compounds were evaluated in cellular assays that measure level of intracellular phosphorylation of EGFR in PC-9 (ECACC, #90071810, Milipore/Sigma) and A431 cell lines (ATCC, CRL-1555) using AlphaLISA sureFire ultra p-EGFR (Tyr1068) assay kit (PerkinElmer, ALSU-PEGFR-A50K). PC-9 cells were seeded at 3.125×10^5 cells/ml in 40 μL phenol-free DMEM supplemented with 10% FBS per well of a 384 well plate (Corning, 3764), while A431 were seeded at […] in 40 μL in phenol-free DMEM with 0.5% FBS. Cells were allowed to adhere overnight at 37° C./5% CO2. On the next day, compounds were transferred at 4-fold, 10-point serial dilution from compound source plate to cell plates using liquid handler Echo550 and were incubated at 37° C./5% CO2 for 4 hours. A431 cells were stimulated prior harvesting for 10 min with EGF at final concentration of 30 ng/ml in the incubator. Medium was removed from the plates and cells were lysed with 10 μL of 1× AlphaLISA lysis buffer (supplemented with 1× protease/phosphatase inhibitor cocktail) followed by shaking at 600 rpm for 30 minutes at room temperature. Lysates were transferred to Optiplate (Apricot designs) and 5 ul of 1× acceptor bead mix (prepared just before use) was added to each well followed by incubation at room temperature for 1.5-2 h in dark. Then 5 μL of freshly-made donor bead mix is added to each well under subdued lighting or green filters, was mixed well on the shaker and the plate was sealed and left for an overnight incubation at room temperature in dark. On the next day, the plate was read the Envision using standard AlphaLisa settings. Percent of pEGFR inhibition was plotted against log concentration of compounds to generate IC50 values.
On the technique in general: In Alpha technology, singlet oxygen from a donor bead excites a nearby acceptor bead.

Each structure is given as a SMILES string. A value given as a limit tells only on which side of the number the result lay.

T1 sequence (P00533 25-1210 L858R): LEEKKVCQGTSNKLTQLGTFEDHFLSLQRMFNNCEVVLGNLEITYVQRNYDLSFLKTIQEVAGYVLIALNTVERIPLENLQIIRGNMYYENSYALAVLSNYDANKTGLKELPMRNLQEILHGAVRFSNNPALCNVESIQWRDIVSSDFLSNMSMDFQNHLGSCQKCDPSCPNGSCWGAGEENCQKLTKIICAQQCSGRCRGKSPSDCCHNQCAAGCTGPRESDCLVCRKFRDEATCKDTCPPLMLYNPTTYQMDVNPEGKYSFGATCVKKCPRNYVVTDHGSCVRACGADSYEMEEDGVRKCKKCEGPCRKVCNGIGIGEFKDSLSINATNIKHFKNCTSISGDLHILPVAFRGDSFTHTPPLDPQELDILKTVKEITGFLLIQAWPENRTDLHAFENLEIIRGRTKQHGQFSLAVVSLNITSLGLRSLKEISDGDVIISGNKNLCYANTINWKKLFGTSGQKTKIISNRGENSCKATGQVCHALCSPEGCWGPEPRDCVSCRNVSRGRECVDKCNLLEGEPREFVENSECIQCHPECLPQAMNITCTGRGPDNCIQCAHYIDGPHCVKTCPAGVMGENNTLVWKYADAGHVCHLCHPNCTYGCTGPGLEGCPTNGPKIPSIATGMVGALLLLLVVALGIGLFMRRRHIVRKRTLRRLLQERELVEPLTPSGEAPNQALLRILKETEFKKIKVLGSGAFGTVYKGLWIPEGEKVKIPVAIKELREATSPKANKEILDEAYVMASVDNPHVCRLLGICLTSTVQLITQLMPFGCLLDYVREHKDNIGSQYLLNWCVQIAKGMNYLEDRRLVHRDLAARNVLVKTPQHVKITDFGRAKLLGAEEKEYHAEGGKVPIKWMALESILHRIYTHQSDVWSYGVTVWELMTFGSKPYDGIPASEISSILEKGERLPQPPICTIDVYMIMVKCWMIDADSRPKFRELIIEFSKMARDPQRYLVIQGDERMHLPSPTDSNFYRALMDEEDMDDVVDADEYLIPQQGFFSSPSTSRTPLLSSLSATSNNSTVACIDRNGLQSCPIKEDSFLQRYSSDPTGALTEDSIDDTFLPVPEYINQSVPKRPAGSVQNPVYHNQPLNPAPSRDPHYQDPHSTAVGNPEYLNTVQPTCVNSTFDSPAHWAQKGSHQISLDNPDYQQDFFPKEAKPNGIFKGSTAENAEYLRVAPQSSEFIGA

Consider `C[C@@H](Oc1cc(-c2cnn(C)c2)cc2ncnc(Nc3ccc4ncsc4c3)c12)C(CO)CO` [Example A56, (R)-2-(1-((4-(benzo[d]thiazol-6-ylamino)-7-(1-methyl-1H-pyrazol-4-yl)quinazolin-5-yl)oxy)ethyl)propane-1,3-diol], for which the IC50 (on EGFR L858R; at EGFR (d746-750); in test [1]) was ≤ 0.01 µM in each case.

As for `C[C@H](Oc1cc(N2CCN(C)C2=O)cc2ncnc(Nc3ccc4ncsc4c3)c12)C1COC1` (single isomer, unassigned) [Example 157], the IC50 (on EGFR L858R; on EGFR (d746-750); in test [1]) was ≤ 0.01 µM each time.

For the compound `C[C@H](Oc1cc(-c2cnn(C)c2)cc2ncnc(Nc3ccc4ncsc4c3F)c12)C1CCOC1` (stereo partly drawn) [Example 90, 7-fluoro-N-(7-(1-methyl-1H-pyrazol-4-yl)-5-((1S)-1-(tetrahydrofuran-3-yl)ethoxy)quinazolin-4-yl)benzo[d]thiazol-6-amine], the IC50 on EGFR L858R is ≤ 0.01 µM; at EGFR (d746-750) it was ≤ 0.01 µM; in test [1], 0.0101 to 0.05 µM.

As to `C[C@@H](Oc1cc(-c2cnn(C)c2)cc2ncnc(Nc3ccc4ncsc4c3)c12)C(=O)N1CCOCC1` [Example 285, (R)-2-((4-(benzo[d]thiazol-6-ylamino)-7-(1-methyl-1H-pyrazol-4-yl)quinazolin-5-yl)oxy)-1-morpholinopropan-1-one], the IC50 (at EGFR L858R; at EGFR (d746-750); in test [1]) was ≤ 0.01 µM in each case.

As to `CN1CCC(n2cc(-c3cc(F)c4c(Nc5ccc6ncsc6c5F)ncnc4c3)cn2)CC1` [Example 227, 7-fluoro-N-(5-fluoro-7-(1-(1-methylpiperidin-4-yl)-1H-pyrazol-4-yl)quinazolin-4-yl)benzo[d]thiazol-6-amine], the IC50 is ≤ 0.01 µM at EGFR L858R, ≤ 0.01 µM at EGFR (d746-750) and 0.0101 to 0.05 µM in test [1].

Turning to `COc1cn(C)nc1-c1cc(O[C@H](C)C2COC2)c2c(Nc3ccc4ncsc4c3F)ncnc2c1` (single isomer, unassigned) [Example 80], the concentration for half-maximal inhibition (IC50) (on EGFR L858R; at EGFR (d746-750); in test [1]) was ≤ 0.01 µM each time.

Consider `Cn1cc(-c2cc(OC[C@H]3CCCO3)c3c(Nc4ccc5ncsc5c4)ncnc3c2)cn1` [Example 31, (R)-N-(7-(1-methyl-1H-pyrazol-4-yl)-5-((tetrahydrofuran-2-yl)methoxy)quinazolin-4-yl)benzo[d]thiazol-6-amine], for which the results for the IC50 (on EGFR L858R; at EGFR (d746-750); in test [1]) were ≤ 0.01 µM, ≤ 0.01 µM and 0.0101 to 0.05 µM, respectively.

With `COc1nn(C)cc1-c1cc(O[C@H]2COC[C@@H]2O)c2c(Nc3ccc4ncsc4c3)ncnc2c1` (single isomer, unassigned) [Example A48], the IC50 (at EGFR L858R; on EGFR (d746-750); in test [1]) was ≤ 0.01 µM throughout.

Take `COc1cc2ncnc(Nc3ccc4ncsc4c3)c2cc1NC(=O)C1CCCN(C)C1` (stereo not drawn) [Example 401, N-(4-(benzo[d]thiazol-6-ylamino)-7-methoxyquinazolin-6-yl)-1-methylpiperidine-3-carboxamide]: the IC50 (on EGFR L858R; on EGFR (d746-750); in test [1]) was 0.0101 to 0.05 µM each time.

Take `C[C@H](Oc1cc(-c2cnn(C)c2)cc2ncnc(Nc3ccc4ncsc4c3F)c12)C1COC1` (single isomer, unassigned) [Example 71, (S)-7-fluoro-N-(7-(1-methyl-1H-pyrazol-4-yl)-5-(1-(oxetan-3-yl)ethoxy)quinazolin-4-yl)benzo[d]thiazol-6-amine or (R)-7-fluoro-N-(7-(1-methyl-1H-pyrazol-4-yl)-5-(1-(oxetan-3-yl)ethoxy)quinazolin-4-yl)benzo[d]thiazol-6-amine]: the IC50 (at EGFR L858R; on EGFR (d746-750); in test [1]) was ≤ 0.01 µM in each case.

For the compound `Cn1cc(-c2cc(OC3COC3)c3c(Nc4ccc5ncsc5c4)ncnc3c2)c(OC(F)F)n1` [Example 250, N-(7-(3-(difluoromethoxy)-1-methyl-1H-pyrazol-4-yl)-5-(oxetan-3-yloxy)quinazolin-4-yl)benzo[d]thiazol-6-amine], the IC50 is ≤ 0.01 µM at EGFR L858R, ≤ 0.01 µM on EGFR (d746-750) and 0.0101 to 0.05 µM in test [1].

`CN1CCC(Oc2cc(-c3cnn(C)c3)cc3ncnc(Nc4ccc5scnc5c4)c23)CC1` [Example A03, N-(7-(1-methyl-1H-pyrazol-4-yl)-5-((1-methylpiperidin-4-yl)oxy)quinazolin-4-yl)benzo[d]thiazol-5-amine]: the figures for the IC50 (at EGFR L858R; at EGFR (d746-750); in test [1]) were 0.0101 to 0.05 µM, ≤ 0.01 µM and 0.0101 to 0.05 µM, respectively.

Turning to `CN1CCC[C@H](Oc2cc(-c3cn(C)nc3OC(F)F)cc3ncnc(Nc4ccc5ncsc5c4)c23)C1` [Example 248, (S)-N-(7-(3-(difluoromethoxy)-1-methyl-1H-pyrazol-4-yl)-5-((1-methylpiperidin-3-yl)oxy)quinazolin-4-yl)benzo[d]thiazol-6-amine], the half-inhibitory concentration (IC50) on EGFR L858R is 0.0101 to 0.05 µM; on EGFR (d746-750), ≤ 0.01 µM; in test [1] it was 0.0101 to 0.05 µM.

With `COCCN1CCC(Oc2cc(-c3nn(C)cc3OC)cc3ncnc(Nc4ccc5ncsc5c4)c23)CC1` [Example 308, N-(7-(4-methoxy-1-methyl-1H-pyrazol-3-yl)-5-((1-(2-methoxyethyl)piperidin-4-yl)oxy)quinazolin-4-yl)benzo[d]thiazol-6-amine], the half-inhibitory concentration (IC50) at EGFR L858R is 0.0101 to 0.05 µM; at EGFR (d746-750), ≤ 0.01 µM; in test [1], 0.0101 to 0.05 µM.

With `Cn1cc(-c2cc(O[C@@H]3CCOC[C@@H]3F)c3c(Nc4ccc5ncsc5c4)ncnc3c2)cn1` (single isomer, unassigned) [Example 43], the figures for the IC50 (at EGFR L858R; on EGFR (d746-750); in test [1]) were ≤ 0.01 µM, ≤ 0.01 µM and 0.0101 to 0.05 µM, respectively.

Turning to `CN1CCC(n2cc(-c3cc4ncnc(Nc5ccc6ncsc6c5F)c4cc3F)cn2)CC1` [Example 356, 7-fluoro-N-(6-fluoro-7-(1-(1-methylpiperidin-4-yl)-1H-pyrazol-4-yl)quinazolin-4-yl)benzo[d]thiazol-6-amine], the IC50 (at EGFR L858R; at EGFR (d746-750); in test [1]) was ≤ 0.01 µM throughout.

With `CN1CCN(CCOc2cc(OC3CCOCC3)c3c(Nc4ccc5ncsc5c4)ncnc3c2)CC1` [Example A16, N-(7-(2-(4-methylpiperazin-1-yl)ethoxy)-5-((tetrahydro-2H-pyran-4-yl)oxy)quinazolin-4-yl)benzo[d]thiazol-6-amine], the figures for the IC50 (at EGFR L858R; at EGFR (d746-750); in test [1]) were 0.0101 to 0.05 µM, ≤ 0.01 µM and 0.0101 to 0.05 µM, respectively.

`CO[C@@H]1CCN(C)C[C@H]1Oc1cc(-c2cnn(C)c2)cc2ncnc(Nc3ccc4ncsc4c3)c12` (single isomer, unassigned) [Example A40]: the IC50 is ≤ 0.01 µM at EGFR L858R, ≤ 0.01 µM at EGFR (d746-750) and 0.0101 to 0.05 µM in test [1].

For the compound `CN(C)C1CCC(Oc2cc(-c3cnn(C)c3)cc3ncnc(Nc4ccc5ncsc5c4)c23)CC1` (stereo not drawn) [Example 21, N-(5-((4-(dimethylamino)cyclohexyl)oxy)-7-(1-methyl-1H-pyrazol-4-yl)quinazolin-4-yl)benzo[d]thiazol-6-amine], the IC50 (on EGFR L858R; on EGFR (d746-750); in test [1]) was ≤ 0.01 µM throughout.

`C[C@H](CN1CCOCC1)Oc1cc(-c2cnn(C)c2)cc2ncnc(Nc3ccc4ncsc4c3)c12` [Example 395, (R)-N-(7-(1-methyl-1H-pyrazol-4-yl)-5-((1-morpholinopropan-2-yl)oxy)quinazolin-4-yl)benzo[d]thiazol-6-amine]: the IC50 on EGFR L858R was ≤ 0.01 µM; on EGFR (d746-750) it was ≤ 0.01 µM; in test [1], 0.0101 to 0.05 µM.
